Laboratory results: ChEMBL document CHEMBL1201862, “PubChem BioAssay data set” (2004)
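Each compound was tested at five concentrations against cells in 96-well plates for 48 hours. GI50 = concentration required for 50% inhibition of growth.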 The source made the active and inactive calls. Cut-off read from the data, not from the text of the source: active = GI50 up to about 1.1 µM and inactive = higher.

Key:
Assay in all cases: growth of human tumour cells (NCI), 48 h
RXF 631 = system: RXF 631
DMS-114 = system: DMS-114
KM-20L2 = system: KM-20L2
DLD-1 = system: DLD-1
SNB-78 = system: SNB-78
LXFL 529 = system: LXFL 529
HOP-18 = system: HOP-18
DMS-273 = system: DMS-273
T47D = system: T47D

Row | SMILES | GI50 (RXF 631) | GI50 (DMS-114) | GI50 (KM-20L2) | GI50 (DLD-1) | GI50 (SNB-78) | GI50 (LXFL 529) | GI50 (HOP-18) | GI50 (DMS-273) | GI50 (T47D)
1 | O=S1(=O)CCCS(=O)(=O)C(c2ccccc2)=C1c1ccccc1 | 84.7 µM (inactive) | 42.7 µM (inactive) | 37.2 µM (inactive) | 39.7 µM (inactive) | > 100 µM (inactive) | 29.6 µM (inactive) | 44.6 µM (inactive) | – | –
2 | O=[PH](O)c1cccnc1 | > 100 µM (inactive) | > 100 µM (inactive) | > 100 µM (inactive) | > 100 µM (inactive) | > 100 µM (inactive) | > 100 µM (inactive) | – | > 100 µM (inactive) | –
3 | CC[N+](C)(C)c1ccc(C(=C2C=CC(=[N+](C)C)C=C2)c2ccc(N(C)C)cc2)cc1 | 13.4 µM (inactive) | 11 µM (inactive) | – | 6.07 µM (inactive) | – | 6.04 µM (inactive) | 6.89 µM (inactive) | 6.4 µM (inactive) | –
4 | O=P1(N(CCCl)CCCl)NCCCO1 (stereo not drawn) [CYCLOPHOSPHAMIDE ANHYDROUS] | > 250 µM (inactive) | > 250 µM (inactive) | > 250 µM (inactive) | > 250 µM (inactive) | > 209 µM (inactive) | > 250 µM (inactive) | 121 µM (inactive) | > 246 µM (inactive) | > 88.7 µM (inactive)
5 | Cc1nc2ccccc2c(=O)n1/N=C(\N=N\c1ccccc1)c1ccccc1Cl | > 71.4 µM (inactive) | 26 µM (inactive) | 65.5 µM (inactive) | 42.6 µM (inactive) | 30.2 µM (inactive) | 24.3 µM (inactive) | 13.6 µM (inactive) | 41 µM (inactive) | –
6 | Cc1cc(Cl)ccc1N1C(=O)C(=O)C(c2nc3ccccc3s2)C(=O)C1=O | > 100 µM (inactive) | > 100 µM (inactive) | > 100 µM (inactive) | > 100 µM (inactive) | > 100 µM (inactive) | > 100 µM (inactive) | > 100 µM (inactive) | > 100 µM (inactive) | –
7 | NC1=NN(c2ccccc2)C(=O)C1C(=O)C(=O)NC1C2CC3CC(C2)CC1C3 (stereo not drawn) | > 100 µM (inactive) | > 100 µM (inactive) | > 100 µM (inactive) | > 100 µM (inactive) | > 100 µM (inactive) | 66.1 µM (inactive) | > 100 µM (inactive) | > 100 µM (inactive) | –
8 | CCOCC(=O)N[C@H]1CCc2cc(OC)c(OC)c(OC)c2-c2ccc(SC)c(=O)cc21 | < 0.01 µM (active) | < 0.01 µM (active) | < 0.01 µM (active) | < 0.01 µM (active) | < 0.01 µM (active) | < 0.01 µM (active) | > 75.3 µM (inactive) | < 0.01 µM (active) | > 100 µM (inactive)
9 | C/C(=N\NC(=O)CC(=O)N(C(=O)c1ccc(Cl)cc1)c1ccc(C)cc1)c1ccccc1O | > 100 µM (inactive) | 97.1 µM (inactive) | 18 µM (inactive) | 74.6 µM (inactive) | 57.3 µM (inactive) | > 100 µM (inactive) | – | 31.7 µM (inactive) | –
10 | Cn1c(=O)c(C(=O)NC(=O)OCc2ccccc2)cn(CCSCCOC(=O)NCCCCCCNC(=O)OCCSCCn2cc(C(=O)NC(=O)OCc3ccccc3)c(=O)n(C)c2=O)c1=O | > 100 µM (inactive) | 78 µM (inactive) | > 100 µM (inactive) | > 100 µM (inactive) | > 100 µM (inactive) | > 100 µM (inactive) | – | > 100 µM (inactive) | –
11 | COc1cc(/C=C(\NC(=O)c2ccccc2)c2nc3ccc4c(c3[nH]2)C(=O)c2ccccc2C4=O)cc(OC)c1OC | 58.7 µM (inactive) | 32.4 µM (inactive) | > 100 µM (inactive) | 7.11 µM (inactive) | 76.7 µM (inactive) | 49 µM (inactive) | – | 40.7 µM (inactive) | –
12 | CC1(Br)C(=O)NC(=O)N([C@H]2C[C@H](O)[C@@H](CO)O2)C1N=[N+]=[N-] (stereo partly drawn) | > 100 µM (inactive) | > 91.2 µM (inactive) | > 100 µM (inactive) | > 100 µM (inactive) | > 100 µM (inactive) | > 100 µM (inactive) | > 100 µM (inactive) | > 100 µM (inactive) | –
13 | COC(=O)C12OCC34C(CC5C(C)C6=CC(=O)OC6=CC5(C)C3C(O)C1O)OC(=O)C(OC(C)=O)C24 (stereo not drawn) | 16.8 µM (inactive) | 12.3 µM (inactive) | 17 µM (inactive) | 14.6 µM (inactive) | 11.6 µM (inactive) | 14.6 µM (inactive) | 14.2 µM (inactive) | 14.4 µM (inactive) | –
14 | COc1cc(-c2cc(CCC(=O)Nc3ccccc3[N+](=O)[O-])n(-c3ccc([N+](=O)[O-])cc3[N+](=O)[O-])n2)ccc1O | > 10 µM (inactive) | > 10 µM (inactive) | > 10 µM (inactive) | > 10 µM (inactive) | > 10 µM (inactive) | 44.7 µM (inactive) | > 10 µM (inactive) | > 10 µM (inactive) | –
15 | COc1cc(C(C)O)c[n+](CCc2c[nH]c3ccccc23)c1 (stereo not drawn) | > 100 µM (inactive) | > 100 µM (inactive) | 56.9 µM (inactive) | > 100 µM (inactive) | – | > 100 µM (inactive) | – | > 100 µM (inactive) | –
